{"source": "patent US11180474B2", "about": "(BRISTOL-MYERS SQUIBB COMPANY, priority 2016, dated 2021)"}
{"target": "T1, human TLR9 (Homo sapiens, UniProt Q9NR96)", "T1 construct": "host or cells: HEK-Blue cells", "T1 sequence (Q9NR96 26-1032)": "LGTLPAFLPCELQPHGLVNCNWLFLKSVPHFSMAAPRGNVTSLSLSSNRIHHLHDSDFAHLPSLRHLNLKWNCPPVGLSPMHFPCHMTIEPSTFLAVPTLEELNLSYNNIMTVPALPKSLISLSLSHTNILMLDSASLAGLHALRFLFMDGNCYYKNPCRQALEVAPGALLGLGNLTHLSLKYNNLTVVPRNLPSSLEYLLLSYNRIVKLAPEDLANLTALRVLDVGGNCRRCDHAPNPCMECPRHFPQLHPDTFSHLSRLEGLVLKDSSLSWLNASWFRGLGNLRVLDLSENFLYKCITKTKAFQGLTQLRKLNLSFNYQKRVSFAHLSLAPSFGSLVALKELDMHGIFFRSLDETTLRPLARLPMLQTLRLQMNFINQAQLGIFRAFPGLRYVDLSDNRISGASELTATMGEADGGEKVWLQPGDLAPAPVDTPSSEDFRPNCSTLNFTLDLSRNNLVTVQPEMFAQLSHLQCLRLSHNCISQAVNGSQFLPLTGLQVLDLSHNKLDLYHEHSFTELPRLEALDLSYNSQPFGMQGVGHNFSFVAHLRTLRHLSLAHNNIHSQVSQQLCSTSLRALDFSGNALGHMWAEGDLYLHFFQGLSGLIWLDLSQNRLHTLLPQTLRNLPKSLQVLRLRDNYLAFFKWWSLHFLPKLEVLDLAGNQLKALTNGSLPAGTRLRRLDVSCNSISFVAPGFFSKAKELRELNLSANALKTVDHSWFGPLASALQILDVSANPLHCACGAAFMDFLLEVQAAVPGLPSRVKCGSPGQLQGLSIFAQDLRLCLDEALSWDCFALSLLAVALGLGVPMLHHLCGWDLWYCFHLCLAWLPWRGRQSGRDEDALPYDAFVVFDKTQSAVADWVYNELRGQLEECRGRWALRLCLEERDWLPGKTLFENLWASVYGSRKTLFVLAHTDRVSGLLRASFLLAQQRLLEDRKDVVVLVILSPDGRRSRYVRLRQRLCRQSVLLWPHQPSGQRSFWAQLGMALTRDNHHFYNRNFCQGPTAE", "assay": "TLR9 inhibition reporter assay (HEK-Blue cells, SEAP reporter, ODN2006 stimulation)", "type": "cell-based", "conditions": "HEK-Blue cells overexpressing human TLR9, ODN2006 5 nM", "procedure,_shortened": "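Dose–response from 0.05 nM to 50 μM was run in HEK-Blue human TLR7, TLR8 and TLR9 reporter cells. After 30 min at room temperature with compound, ligand was added (TLR7 gardiquimod 7.5 μM; TLR8 R848 15.9 μM; TLR9 ODN2006 5 nM) and SEAP measured next day, at 22 h.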", "units": {"IC50": "nM"}}
{"smiles": "COc1ccc(-c2[nH]c3ccc(C4CCN(C5CCN(CC6CC6)CC5)CC4)cc3c2C)cc1OC", "note": "[Example 3, 5-(1′-(cyclopropylmethyl)-[1,4′-bipiperidin]-4-yl)-2-(3,4-dimethoxyphenyl)-3-methyl-1H-indole]", "IC50": 117}
{"smiles": "COc1ccc(-c2[nH]c3ccc(C4CCN(C(C)CO)CC4)cc3c2C)cc1OC", "note": "(stereo not drawn) [Example 43, 2-(4-(2-(3,4-dimethoxyphenyl)-3-methyl-1H-indol-5-yl)piperidin-1-yl)propan-1-ol]", "IC50": 2760}
{"smiles": "CCN1CCC(N2CCC(c3ccc4[nH]c(-c5ccc(OC)c(OC)c5)c(C)c4c3)CC2)CC1", "note": "[Example 44, 2-(3,4-dimethoxyphenyl)-5-(1′-ethyl-[1,4′-bipiperidin]-4-yl)-3-methyl-1H-indole]", "IC50": 301}
{"smiles": "COc1ccc(-c2[nH]c3ccc(C4CCN(C5CC(C)(C)NC(C)(C)C5)CC4)cc3c2C)cc1OC", "note": "[Example 48, 2-(3,4-dimethoxyphenyl)-3-methyl-5-(2′,2′,6′,6′-tetramethyl-[1,4′-bipiperidin]-4-yl)-1H-indole]", "IC50": 435}
{"smiles": "COc1ccc(-c2[nH]c3ccc(C4CCN(CC5CCCCN5C)CC4)cc3c2C)cc1OC", "note": "(stereo not drawn) [Example 49, 2-(3,4-dimethoxyphenyl)-3-methyl-5-(1-((1-methylpiperidin-2-yl)methyl)piperidin-4-yl)-1H-indole]", "IC50": 550}
{"smiles": "COc1ccc(-c2[nH]c3ccc(C4CCN(C5CCN(CCC(F)(F)F)CC5)CC4)cc3c2C)cc1OC", "note": "[Example 50, 2-(3,4-dimethoxyphenyl)-3-methyl-5-(1′-(3,3,3-trifluoropropyl)-[1,4′-bipiperidin]-4-yl)-1H-indole]", "IC50": 442}
{"smiles": "COc1ccc(-c2[nH]c3ccc(C4CCN(C5CCN(CC(O)CO)CC5)CC4)cc3c2C)cc1OC", "note": "(stereo not drawn) [Example 52, 3-(4-(2-(3,4-dimethoxyphenyl)-3-methyl-1H-indol-5-yl)-[1,4′-bipiperidin]-1′-yl)propane-1,2-diol]", "IC50": 268}
{"smiles": "CCCCCN1CCC(N2CCC(c3ccc4[nH]c(-c5ccc(OC)c(OC)c5)c(C)c4c3)CC2)CC1", "note": "[Example 55, 2-(3,4-dimethoxyphenyl)-3-methyl-5-(1′-pentyl-[1,4′-bipiperidin]-4-yl)-1H-indole]", "IC50": 72}
{"smiles": "COc1ccc(-c2[nH]c3ccc(C4CCN(C5CCN(CC6CCCCC6)CC5)CC4)cc3c2C)cc1OC", "note": "[Example 58, 5-(1′-(cyclohexylmethyl)-[1,4′-bipiperidin]-4-yl)-2-(3,4-dimethoxyphenyl)-3-methyl-1H-indole]", "IC50": 86}
{"smiles": "COc1ccc(-c2[nH]c3ccc(C4CCN(C5CCN(Cc6cncn6C)CC5)CC4)cc3c2C)cc1OC", "note": "[Example 59, 2-(3,4-dimethoxyphenyl)-3-methyl-5-(1′-((1-methyl-1H-imidazol-5-yl)methyl)-[1,4′-bipiperidin]-4-yl)-1H-indole]", "IC50": 180}
{"smiles": "COc1ccc(-c2[nH]c3ccc(C4CCN(C5CCN(C6CCCC6)CC5)CC4)cc3c2C)cc1OC", "note": "[Example 62, 5-(1′-cyclopentyl-[1,4′-bipiperidin]-4-yl)-2-(3,4-dimethoxyphenyl)-3-methyl-1H-indole]", "IC50": 196}
{"smiles": "COc1ccc(-c2[nH]c3ccc(C4CCN(C5CCN(Cc6cccs6)CC5)CC4)cc3c2C)cc1OC", "note": "[Example 64, 2-(3,4-dimethoxyphenyl)-3-methyl-5-(1′-(thiophen-2-ylmethyl)-[1,4′-bipiperidin]-4-yl)-1H-indole]", "IC50": 112}
{"smiles": "COc1ccc(-c2[nH]c3ccc(C4CCN(C5CCN(CC6CCCC6)CC5)CC4)cc3c2C)cc1OC", "note": "[Example 65, 5-(1′-(cyclopentylmethyl)-[1,4′-bipiperidin]-4-yl)-2-(3,4-dimethoxyphenyl)-3-methyl-1H-indole]", "IC50": 112}
{"smiles": "COc1ccc(-c2[nH]c3ccc(C4CCN(C5CCN(C6CCCCC6)CC5)CC4)cc3c2C)cc1OC", "note": "[Example 68, 5-(1′-cyclohexyl-[1,4′-bipiperidin]-4-yl)-2-(3,4-dimethoxyphenyl)-3-methyl-1H-indole]", "IC50": 88}
{"smiles": "COc1ccc(-c2[nH]c3ccc(C4CCN(C5CCN(CC(C)(C)CO)CC5)CC4)cc3c2C)cc1OC", "note": "[Example 69, 3-(4-(2-(3,4-dimethoxyphenyl)-3-methyl-1H-indol-5-yl)-[1,4′-bipiperidin]-1′-yl)-2,2-dimethylpropan-1-ol]", "IC50": 174}
{"smiles": "COc1ccc(-c2[nH]c3ccc(C4CCN(C5CCN(Cc6nccs6)CC5)CC4)cc3c2C)cc1OC", "note": "[Example 72, 2-((4-(2-(3,4-dimethoxyphenyl)-3-methyl-1H-indol-5-yl)-[1,4′-bipiperidin]-1′-yl)methyl)thiazole]", "IC50": 356}
{"smiles": "COc1ccc(-c2[nH]c3ccc(C4CCN(C5CCN(CC6CCOC6)CC5)CC4)cc3c2C)cc1OC", "note": "(stereo not drawn) [Example 74]", "IC50": 62}
{"smiles": "COc1ccc(-c2[nH]c3ccc(C4CCN(C5CCN(CC(C)(C)C)CC5)CC4)cc3c2C)cc1OC", "note": "[Example 75, 2-(3,4-dimethoxyphenyl)-3-methyl-5-(1′-neopentyl-[1,4′-bipiperidin]-4-yl)-1H-indole]", "IC50": 169}
{"smiles": "COc1ccc(-c2[nH]c3ccc(C4CCN(C5CCN(Cc6ccco6)CC5)CC4)cc3c2C)cc1OC", "note": "[Example 76, 2-(3,4-dimethoxyphenyl)-5-(1′-(furan-2-ylmethyl)-[1,4′-bipiperidin]-4-yl)-3-methyl-1H-indole]", "IC50": 172}
{"smiles": "COc1ccc(-c2[nH]c3ccc(C4CCN(C5CCN(Cc6cccn6C)CC5)CC4)cc3c2C)cc1OC", "note": "[Example 78, 2-(3,4-dimethoxyphenyl)-3-methyl-5-(1′-((1-methyl-1H-pyrrol-2-yl)methyl)-[1,4′-bipiperidin]-4-yl)-1H-indole]", "IC50": 130}
{"smiles": "COc1ccc(-c2[nH]c3ccc(C4CCN(C5CCN(C6CCC(C)CC6)CC5)CC4)cc3c2C)cc1OC", "note": "(stereo not drawn) [Example 80, 2-(3,4-dimethoxyphenyl)-3-methyl-5-(1′-(4-methylcyclohexyl)-[1,4′-bipiperidin]-4-yl)-1H-indole]", "IC50": 80}
{"smiles": "COc1ccc(-c2[nH]c3ccc(C4CCN(C5CCN(C6CCC(O)CC6)CC5)CC4)cc3c2C)cc1OC", "note": "(stereo not drawn) [Example 84, 4-(4-(2-(3,4-dimethoxyphenyl)-3-methyl-1H-indol-5-yl)-[1,4′-bipiperidin]-1′-yl)cyclohexan-1-ol]", "IC50": 192}
{"smiles": "COc1ccc(-c2[nH]c3ccc(C4CCN(C5CCCN(C)CC5)CC4)cc3c2C)cc1OC", "note": "(stereo not drawn) [Example 91, 2-(3,4-dimethoxyphenyl)-3-methyl-5-(1-(1-methylazepan-4-yl)piperidin-4-yl)-1H-indole]", "IC50": 313}
{"smiles": "COc1ccc(-c2[nH]c3ccc(C4CCN(C5CCCN(C6CCCC6)CC5)CC4)cc3c2C)cc1OC", "note": "(stereo not drawn) [Example 93, 5-(1-(1-cyclopentylazepan-4-yl)piperidin-4-yl)-2-(3,4-dimethoxyphenyl)-3-methyl-1H-indole]", "IC50": 237}
{"smiles": "COc1ccc(-c2[nH]c3ccc(C4CCN(C5CCCN(CC6CC6)CC5)CC4)cc3c2C)cc1OC", "note": "(stereo not drawn) [Example 94, 5-(1-(1-(cyclopropylmethyl)azepan-4-yl)piperidin-4-yl)-2-(3,4-dimethoxyphenyl)-3-methyl-1H-indole]", "IC50": 195}
{"smiles": "COc1ccc(-c2[nH]c3ccc(C4CCN(C5CCCN(CC(C)C)CC5)CC4)cc3c2C)cc1OC", "note": "(stereo not drawn) [Example 95, 2-(3,4-dimethoxyphenyl)-5-(1-(1-isobutylazepan-4-yl)piperidin-4-yl)-3-methyl-1H-indole]", "IC50": 115}
{"smiles": "CCN1CCCC(N2CCC(c3ccc4[nH]c(-c5ccc(OC)c(OC)c5)c(C)c4c3)CC2)CC1", "note": "(stereo not drawn) [Example 97, 2-(3,4-dimethoxyphenyl)-5-(1-(1-ethylazepan-4-yl)piperidin-4-yl)-3-methyl-1H-indole]", "IC50": 397}
